{"source": "patent EP4581943A1", "about": "“AEROSOLISABLE MATERIAL FOR USE IN AN ARTICLE” (BT DE Investments Inc., priority 2024, dated 2025)", "key": {"[1]": {"assay": "Solubility of CBC in solvent systems, step-wise addition, visual inspection", "type": "physicochemical", "conditions": "cumulative CBC concentration after addition; solvent PG:VG 70:30", "procedure": "(§1) Solvent systems were prepared and then CBG was added in a step-wise fashion and mixed until dissolved (according to visual inspection). The time taken for each addition to be solubilized was recorded.\nA similar approach was taken as for example 1, but this time CBC was assessed."}, "[2]": {"type": "physicochemical", "procedure": "as §1"}}, "data": [{"smiles": "CCCCCc1cc(O)c2c(c1)OC(C)(CCC=C(C)C)C=C2", "note": "(stereo not drawn) [CBC, cannabichromene]", "values": [{"measurement": "Concentration", "setting": "[1]", "value": 3.0319, "unit": "%w/w"}]}, {"smiles": "CCCCCc1cc(O)c(C/C=C(\\C)CCC=C(C)C)c(O)c1", "note": "[CBG, cannabigerol]", "values": [{"measurement": "CBG concentration the solvent system could sustain", "setting": "[2]", "value": "≤ 5", "unit": "%w/w"}, {"measurement": "time taken to solubilize approximately 5% CBG", "setting": "[2]", "value": "> 2", "unit": "h"}]}]}
